Source: patent publication US8053467B2, “Flavor improving agent, and food and drink containing the same” (Takasago International Corporation, priority 2006, dated 2011)

Key:
[1] = Sensory evaluation of the flavor improving agents for the sugar-free sweetener; assay type: in vivo
Method: A sugar-free sweetener having the formulation shown in Table 2 was obtained, and 12 g of the sugar-free sweetener was dissolved in 1 kg of ion exchanged water to obtain a 1.2 wt. % aqueous solution. 60 mg of the flavor improving agent in Example 2 was added to 300 g of the aqueous solution to obtain a sugar-free sweetener solution sample containing 0.02% by weight of the flavor improving agent. The content of 5-hydroxymethyl-2-furaldehyde bis(5-formylfurfuryl)acetal in the sugar-free sweetener was 0.00014% by weight.
This sample was evaluated with regard to the items shown in Table 3 by a sensory evaluation method of comparing a sample with a control product. The evaluation was performed by a panel of 5 trained experts. The sample was evaluated with the points in the range of −3 to +3, with setting the control product at 0 point. The control product was not provided with a flavor improving agent (provided with ethanol).
The numerals in the table are the averages of the 5 experts.

[2] = Sensory evaluation of the flavor improving agents for the coffee drink; assay type: in vivo; settings: summary of Table 10
Method: 60 mg of the flavor improving agent in Example 2 was added to 300 g of commercially available canned coffee to obtain a coffee drink containing 0.02% by weight of the flavor improving agent. The content of 5-hydroxymethyl-2-furaldehyde bis(5-formylfurfuryl)acetal in this coffee drink was 0.00014% by weight.
This coffee drink was evaluated with regard to the items shown in Table 10 by a sensory evaluation method of comparing a sample with a control product. The evaluation was performed by a panel of 5 trained experts. Sensory evaluation of the coffee drink was carried out with the points in the range of −3 to +3, with setting the control product at 0 point, in the same manner as in Example 9. The control product was not provided with a flavor improving agent (provided with ethanol).

[3] = Bitterness threshold by sensory evaluation test (panel of 9 experts); assay type: in vivo; settings: for bitterness at the maximum concentration: at 0.1% by weight, the maximum concentration (1000 times the acetal threshold)
Method: 100 mg of 5-hydroxymethyl-2-furaldehyde bis(5-formylfurfuryl)acetal obtained in Example 1 was dissolved in 1 mL of ethanol, and 100 mL of water was added to produce 0.1% by weight of a 1 wt. % ethanol solution. This solution was diluted 10-fold with water repeatedly to prepare samples for evaluation. In consideration of the taste of ethanol itself, a 1 wt. % ethanol solution was prepared and diluted 10-fold with water repeatedly to prepare blanks respectively corresponding to the samples for evaluation. The evaluation was performed by a panel of 9 experts. The sensory evaluation test was performed from a sample/blank having a lower concentration. In the order of blanks to samples, the experts held 200 mg of each sample/blank in the mouth and evaluated the difference in taste.

[4] = literature report; cited from earlier work
[5] = sugar-free sweetener solution, summary of Table 3
[6] = same type of test as Example 9, agents prepared as in Example 2 with formulas (2) and (3), also with 100 times the amount

With αG hesperidin the “flavor improving effect in words” value [1, 5] was “poor effect of reducing astringency or improving the sense of volume”.

For diheterolevulosan II, the “flavor effect in words” value [2] was “medicine-like unnatural bitterness and are poor in attractiveness”.

With `C[C@@H]1O[C@@H](O[C@H]2[C@H](Oc3cc(O)c4c(c3)O[C@H](c3ccc(O)cc3)CC4=O)O[C@H](CO)[C@@H](O)[C@@H]2O)[C@H](O)[C@H](O)[C@H]1O` [naringin] the “flavor effect in words” value [2] was “medicine-like unnatural bitterness and are poor in attractiveness”.

For `O=Cc1ccc(COC(OCc2ccc(C=O)o2)c2ccc(CO)o2)o1` [acetal compound of the present invention, 5-hydroxymethyl-2-furaldehyde bis(5-formylfurfuryl)acetal], the bitterness threshold ([3]; 1 ppm expressed in %) was 0.0001%, the bitterness threshold ([3]; 1 ppm expressed in % by weight) was 0.0001 % by weight and the bitterness threshold ([3]; 10-fold dilutions in water vs ethanol blanks, panel of 9 experts) was 1 ppm. The “bitterness threshold converted to the molar concentration” value ([3]; converted from 1 ppm) was “about 10^−3 mM”.

For `O=Cc1ccc(CO)o1` [formula (2), 5-hydroxymethyl-2-furaldehyde], the “bitterness at the maximum concentration” value [3] is given as “did not provide bitterness”, the reported taste [4] is given as “unpleasant taste” and the “flavor improving effect in words” value [1, 6] is given as “None of the agents exhibited any flavor improving effect and provided various unpleasant tastes including astringency”.

With `O.O.O.O.O.O.O.O.O.O.O.O.O=S(=O)([O-])[O-].O=S(=O)([O-])[O-].[Al+3].[K+]` [potassium alum] the “flavor improving effect in words” value [1, 5] was “poor effect of reducing astringency or improving the sense of volume”.

In the case of `O=Cc1ccc(COCc2ccc(C=O)o2)o1` [formula (3)], the “bitterness at the maximum concentration” value [3] is given as “did not provide bitterness”, the reported taste [4] is given as “unpleasant taste” and the “flavor improving effect in words” value [1, 6] is given as “None of the agents exhibited any flavor improving effect and provided various unpleasant tastes including astringency”.
